Source: patent US8608842B2, “Infrared absorbing composition, infrared absorbing ink, recorded article, image recording method, and image detecting method” (FUJIFILM Corporation, priority 2010, dated 2013)

Key:
Type in all cases: physicochemical
[1] = Solubility of IR coloring material in toluene at 25° C.; conditions: toluene, 25° C.
Method: Specifics are as follows.
First, a tetrahydrofuran (THF) solution prepared by adding the IR coloring material to TI-IF is measured by a spectrophotometer and a calibration curve is constructed. Next, a liquid is prepared by adding the IR coloring material to toluene to the level that there is a part of the coloring material left undissolved. The resulting liquid is subjected to ultrasonication for 10 minutes while being maintained at 25° C., and allowed to stand overnight at 25° C. The THF solution obtained after the standing is filtered using a 0.2 μm filter. The filtrate is diluted so that it falls within the linear range of the calibration curve, the absorbance is measured, and quantification is made using the calibration curve.
The solubility shown in Table 1 was measured according to the method described below. Specifics are as follows.
First, the THF solution prepared by adding the IR coloring material to tetrahydrofuran (THF) was measured by a spectrophotometer, and the calibration curve was established. Next, a liquid was prepared by adding the IR coloring material to toluene to the level that there is a part of coloring material left undissolved. The resulting liquid was subjected to ultrasonication for 10 minutes while being kept at 25° C., and allowed to stand overnight at 25° C. The THF solution obtained after the standing was filtered using a 0.2 μm filter. The filtrate was diluted so that it falls within the linear range of the calibration curve, and the absorbance was measured. Based on the measured value, the solubility was quantified using the calibration curve.

[2] = Bar code pattern reading (PCS) of printed article before and after xenon light irradiation (light resistance); conditions: ink solvent toluene/methyl isobutyl ketone = 70/30; xenon light of 70,000 lux, 200 hours
Method: By mixing the components of the composition shown below, the infrared absorbing printing ink (1) was prepared.
By using each of the infrared absorbing printing ink obtained above, a bar code pattern was formed on a regular paper (trade name: MP-120, manufactured by PLUS Corporation), i.e., a base paper, by Gravure printing.
Subsequently, on the formed bar code pattern, another bar code pattern was additionally formed by using the infrared absorbing ink (2) having the composition shown below.
Next, on top of the bar code patterns formed by disposing two layers, three kinds of process inks having infrared transmittance (FDOL Yellow, FDOL Magenta, and FDOL Cyan, manufactured by TOYO INK MFG. CO., LTD. (trade names, manufactured by TOYO INK MFG. CO., LTD.) were further applied by Gravure printing to form a colored layer made of three visible colors (cyan, magenta, and yellow). As a result, a printed article having a bar code pattern disposed inside the matter was produced.
Two kinds of semiconductor laser beam having wavelengths of 830 nm and 905 nm respectively were irradiated onto the thus obtained printed article, and the detection was made by using a filter which cuts off the emission light having wavelength of 950 nm or less. As a result, it was possible to detect the pattern formed by the infrared absorbing ink.
Subsequently, xenon light of 70,000 lux was irradiated continuously for 200 hours onto the printed article by using a xenon lamp. After that, the reading state of the bar code pattern after the irradiation was evaluated. For the evaluation, PCS (print•contrast•signal) of 0.6 or more was evaluated as “good,” and PCS (print•contrast•signal) of less than 0.6 was evaluated as “bad.” The evaluation results are shown in Table 2 below.
The printed article was prepared in the same manner as Example 1 except that the solvent (a mixture solvent of toluene and methyl isobutyl ketone) in the composition of the infrared absorbing ink (1) and (2) is replaced with n-octane (SP value: 7.6), butyl acetate (SP value: 8.5), or isopropyl alcohol (IPA; SP values: 11.5), and evaluated.
The comparative printed article was prepared in the same manner as Example 1 except that the solvent (a mixture solvent of toluene and methyl isobutyl ketone) in the composition of the infrared absorbing ink (1) and (2) is replaced with n-pentane (SP value: 7.0; Example 2) or ethanol (SP value: 12.7; Example 3), and evaluated.

[3] = Ultraviolet curable ink of Example 4: reflected light of mark for copy protection, before and after xenon irradiation; conditions: xenon light of 70,000 lux, 72 hours; variation compared to the value before irradiation
Method: By mixing the components of the composition shown below, an ultraviolet curable ink having an infrared absorbing property was prepared.
By using the ultraviolet curable ink thus obtained, a mark for copy protection was printed on the same base paper as that used in Example 1 by Gravure printing. On top of the printed mark for copy protection, each of the three kinds of a process ink (FDOL Yellow, FDOL Magenta, and FDOL Cyan, trade names, manufactured by TOYO INK MFG. CO., LTD.) was applied as a layer by Gravure printing, or a mixture ink in which the three kinds of a process ink are mixed was applied as a layer by Gravure printing to hide the mark for copy protection, thus obtaining a printed article.
The mark for copy protection that is hidden by the process ink was irradiated with infrared light using a linear sensor (trade name: TCD1500C, manufactured by Toshiba) in which the infrared cut-off filter of linear sensor was replaced with an infrared transmitting filter (trade name: IR83, manufactured by Hoya) as a detection device, and the reflected light was detected simultaneously.
The reflection light intensity in the area of the mark for copy protection at the time of detecting the mark was divided by the reflection light intensity of the area outside the mark for copy protection. The resulting value of the comparative infrared absorbing agent A was set to 1, and a ratio of the resulting value with respect to the resulting value of the comparative infrared absorbing agent A was calculated for each compound.
In addition, the obtained printed article was irradiated continuously with xenon light of 70,000 lux for 72 hours by using a Xenon lamp. After the irradiation, similar to above, the reflection light intensity of the area of the mark for copy protection was divided by the reflection light intensity of the area outside the mark for copy protection, and the variation ratio [%] compared to the value before the irradiation was calculated to use it as an index for evaluation of light resistance.

## N,N,N′,N′-tetrakis(p-di-n-butylaminophenyl)-p-phenylene diaminium perchlorate salt [reference compound]
[1]
  Solubility [mg/ml] Solvent: toluene: 32 mg/mL
[2]
  Reading after irradiation: Bad (PCS (print•contrast•signal) of less than 0.6 was evaluated as “bad.”)
[3]
  Variation amount after irradiation [%]: 16%
